Reference: patent publication US20020164397A1, “N-[N-(3, 3-DIMETHYLBUTYL)-L-ALPHA-ASPARTYL]-L-PHENYLALANINE 1-METHYL ESTER AS A SWEETENER IN CHEWING GUM” (priority 1998, published 2002)
“And” between values parts separate entries of the source, which are not always exact repeats. Equal values may be shown once. Where a SMILES comes first, the peptide text is derived from it.

Experiments:
[1] = Sweetness intensity of chewing gums versus chewing time, trained panel of experts (0-15 scale); format: in vivo; settings: for average sweetness loss rate at 6-10 minutes / average sweetness intensity at 6-10 minutes / average sweetness loss rate at 10-20 minutes / average sweetness intensity at 10-20 minutes: isosweet sweetener concentrations; for average sweetness loss rate at 6-10 minutes / average sweetness intensity at 6-10 minutes: chewing time 6-10 minutes; for average sweetness intensity at 6-10 minutes / average sweetness intensity at 10-20 minutes: scale 0-15; for average sweetness loss rate at 10-20 minutes / average sweetness intensity at 10-20 minutes: chewing time 10-20 minutes
Description: FIG. 1 is a plot of the sweetness intensity of chewing gum prepared with sugar (sucrose), saccharin, aspartame, acesulfame-K, sucralose or neotame as a function of chewing time. Each chewing gum comprises the corresponding sweetener at a sweetener concentration that provides an identical (“isosweet”) degree of sweetness. The sweetness intensity was measured by a trained panel of experts and is expressed as the amount of sweetness based on a sweetness intensity scale of 0-15 units.
The sweetness profile of neotame in chewing gum is illustrated in FIG. 1. Also illustrated in FIG. 1 is a comparison of the sweetness intensity profiles, as measured by a trained panel of experts, of chewing gums prepared with neotame, aspartame, acesulfame-K, saccharin, sucralose, and sugar (sucrose). The sweetness detected is expressed as the amount of sweetness based on a universal sweetness scale of 0-15, and the values were obtained by having subjects of the trained panel chew pieces of gum containing the sweetener and reporting perceived sweetness after various chewing intervals. Since each chewing gum was prepared with an “isosweet” concentration (i.e., same level of sweetness; e.g., 100 ppm neotame and 3000 ppm aspartame are isosweet concentrations) of the respective sweetener and the scale is a measure of absolute sweetness at any point during chewing, the different sweetener profiles can be compared directly to each other.
Table 1 summarizes the sweetness intensity loss rates and average sweetness intensities which occur at a chewing time period of between 6 and 10 minutes and those which occur at a chewing time period between 10 and 20 minutes for a variety of sweeteners. The sweetness intensity loss rate is calculated as the difference in sweetness intensities measured at any two time points divided by the number of minutes of the time interval, and approximates the mathematical slope of the downward trend of sweetness intensity over time.
These values were determined by calculating the average sweetness intensity measured at the specified evaluation times. For example, for the chewing gum comprising neotame at between 6 and 10 minutes, the average sweetness intensity is determined to be (5.2+4.6+4.2)/3=4.7.
The advantage of sweetness extension provided by neotame can also be illustrated by comparison of the sweetness intensity half-lives over time. Table 2 summarizes the half-lives of sweetness intensity of chewing gums comprising different sweeteners after the maximum sweetness intensities (around two minutes) are reached. The half-life is a measure of the time of chewing in which half of the sweetness is lost relative to the time in which the sweetness intensity maximum is achieved.
(§1) The sensory profiling of chewing gum samples was carried out using the Spectrum Method of Descriptive Analysis (Meilgaard, M., Civille, G. V., Carr, B. T, 1999. Sensory Evaluation Techniques, 3rd Ed. CRC Press, New York, p. 173-229). Extensive sensory training was conducted in order to familiarize the panel, consisting of 6-8 individuals, with a product category, exposing the panel to the flavor attributes of the category and in-depth practice by the panelists in the use of a fifteen point scale for describing intensity differences. Once trained, the method enabled the trained panelists to indicate the sensory intensity of either sweetness intensity or flavor intensity in a universal context, where 0 indicates “none” of the attribute present, 2 approximates “threshold” intensities, 5 “slight or low” level, 7.5 “moderate” intensity, 10 “strong” and 15 “extreme”.
Chewing of the gums was initiated by the panel leader while starting a timer. As the time intervals 0.25, 0.5, 1.0, 2.0, 3.0, 4.0, 6.0, 8.0, 10.0, 12.0, 16.0, and 20.0 minutes approached, the panel leader gave panelists a five second warning and then called out the time to rate the attributes. To minimize fatigue, 3-4 samples were evaluated during one session. […]

[2] = Peppermint flavor intensity of chewing gums versus chewing time, trained panel of experts (0-15 scale); format: in vivo
Description: FIG. 2 is a plot of peppermint flavor intensity verses chewing time of chewing gums prepared with isosweet levels of aspartame (3000 ppm) and neotame (100 ppm). The chewing gum prepared with aspartame comprised a 1.5 wt % peppermint flavor, while the four neotame chewing gums comprised peppermint flavor at concentrations of 1.5, 1.25, 1.00, and 0.75 wt %. The peppermint flavor intensity was measured by a trained panel of experts and is plotted as a function of chewing time. The peppermint flavor intensity is expressed as the amount of peppermint flavor based on a universal peppermint intensity scale of 0-15 units.
As in the case of sweetness intensity comparisons, since the chewing gums were prepared with an identical amount of flavor and the scale is a measure of absolute flavor at any point during chewing, the different flavor profiles can be compared directly to each other. The rate of flavor intensity loss of the chewing gum comprising neotame is 0.0875 flavor intensity units per minute, while that of chewing gum comprising aspartame was determined to be 0.150 flavor intensity units per minute. Thus, the rate of flavor loss of a chewing gum comprising neotame is nearly half that of the flavor loss for a chewing gum comprising aspartame at an isosweet level and containing an equal concentration of peppermint flavor.
Table 4 summarizes the half-lives of both sweetness and flavor of chewing gums prepared with aspartame (3000 ppm) with 1.5 wt % flavor and neotame (100 ppm) with 1.5, 1.25, 1.00, and 0.75 wt % flavor amounts. The half-life is the time in minutes for the intensity to fall to half of its maximum value (sweetness, 2 minutes; flavor, 4 minutes).
as §1
Chewing of the gums was initiated by the panel leader while starting a timer. As the time intervals 0.25, 0.5, 1.0, 2.0, 3.0, 4.0, 6.0, 8.0, 10.0, 12.0, 16.0, and 20.0 minutes approached, the panel leader gave panelists a five second warning and then called out the time to rate the attributes. To minimize fatigue, 3-4 samples were evaluated during one session. Samples were assessed in duplicate, presented in a balanced order, unwrapped in two ounce plastic cups, and randomly coded with three-digit numbers. The panelists were given a ten minute break between samples to minimize carry-over effects. Water, Mott's Natural Applesauce and unsalted soda crackers were given as palate cleansers.
The data was analyzed for standard ANOVA for across sample comparison of attributes at each chew time. Data was then plotted as a graph of intensities vs. chewing time yielding either a sweetness or flavor profile for the entire chew time.

[3] = relative to sucrose; cited from earlier work
[4] = chewing time in which half of the sweetness is lost relative to the sweetness intensity maximum, isosweet concentrations
[5] = 1.50% flavor, time for intensity to fall to half of its maximum (2 minutes), aspartame 3000 ppm / neotame 100 ppm
[6] = 1.50% flavor, time for intensity to fall to half of its maximum (4 minutes), aspartame 3000 ppm / neotame 100 ppm
[7] = 1.50% peppermint flavor, isosweet aspartame 3000 ppm / neotame 100 ppm
[8] = 0.75% peppermint flavor, neotame 100 ppm
[9] = 1.00% peppermint flavor, neotame 100 ppm
[10] = 1.25% peppermint flavor, neotame 100 ppm
[11] = flavor amounts less than full-flavored (reduced to at least around 50%)
[12] = full-flavored chewing gum, about 4 to about 20 minutes of chewing

CC1=CC(=O)[N-]S(=O)(=O)O1.[K+] [acesulfame-K, the potassium salt of 3,4-dihydro-6-methyl-1,2,3-oxathiazine-4-one-2,2-dioxide]
average sweetness loss rate at 6-10 minutes ([1]; chewing gum): 0.45 intensity units/min
average sweetness intensity at 6-10 minutes ([1]; chewing gum): 4.3 intensity units
average sweetness loss rate at 10-20 minutes ([1]; chewing gum): 0.26 intensity units/min
average sweetness intensity at 10-20 minutes ([1]; chewing gum): 2.0 intensity units
half-life of sweetness intensity [1, 4]: 5.5 min

COC(=O)[C@H](Cc1ccccc1)NC(=O)[C@@H](N)CC(=O)O [aspartame] (HELM PEPTIDE1{D.F.[CO[*:1]]}$$$$V2.0)
half-life of sweetness intensity [1, 5]: 7.6 min
average sweetness loss rate at 6-10 minutes ([1]; chewing gum): 0.52 intensity units/min
average sweetness intensity at 6-10 minutes ([1]; chewing gum): 4.6 intensity units
average sweetness loss rate at 10-20 minutes ([1]; chewing gum): 0.25 intensity units/min
average sweetness intensity at 10-20 minutes ([1]; chewing gum): 2.3 intensity units
half-life of sweetness intensity [1, 4]: 6.4 min
half-life of peppermint flavor intensity [2, 6]: 19.7 min
average flavor intensity at 4-20 minutes [2, 7]: 4.2 intensity units
flavor loss rate at 4-20 minutes [2, 7]: 0.150 flavor intensity units per minute

COC(=O)[C@H](Cc1ccccc1)NC(=O)[C@H](CC(=O)O)NCCC(C)(C)C [neotame, N-[N-(3,3-dimethylbutyl)-L-α-aspartyl]-L-phenylalanine 1-methyl ester]
half-life of sweetness intensity ([1]; 0.75% flavor, neotame 100 ppm): 16.9 min
half-life of sweetness intensity ([1]; 1.00% flavor, neotame 100 ppm): 20.7 min
half-life of sweetness intensity ([1]; 1.25% flavor, neotame 100 ppm): 17.2 min
half-life of sweetness intensity [1, 5]: 17.0 min
sweetness intensity at 6 minutes ([1]; chewing gum, 100 ppm neotame, 6 minutes of chewing): 5.2 sweetness intensity units
sweetness intensity at 10 minutes ([1]; chewing gum, 100 ppm neotame, 10 minutes of chewing): 4.2 sweetness intensity units
sweetness intensity at 8 minutes ([1]; chewing gum, 100 ppm neotame, evaluation time between 6 and 10 minutes): 4.6 sweetness intensity units
half-life of sweetness intensity [1, 4]: 14.9 min
half-life of peppermint flavor intensity ([2]; 0.75% flavor, neotame 100 ppm): 33.1 min
average flavor intensity at 4-20 minutes [2, 8]: 3.9 intensity units
flavor loss rate at 4-20 minutes [2, 8]: 0.070 flavor intensity units per minute
half-life of peppermint flavor intensity ([2]; 1.00% flavor, neotame 100 ppm): 31.7 min
average flavor intensity at 4-20 minutes [2, 9]: 4.0 intensity units
flavor loss rate at 4-20 minutes [2, 9]: 0.075 flavor intensity units per minute
half-life of peppermint flavor intensity ([2]; 1.25% flavor, neotame 100 ppm): 31.3 min
average flavor intensity at 4-20 minutes [2, 10]: 4.2 intensity units
flavor loss rate at 4-20 minutes [2, 10]: 0.088 flavor intensity units per minute
half-life of peppermint flavor intensity [2, 6]: 44.3 min
average flavor intensity at 4-20 minutes [2, 7]: 4.6 intensity units
flavor loss rate at 4-20 minutes [2, 7]: 0.0875 flavor intensity units per minute and 0.088 flavor intensity units per minute
average flavor intensities at 4-20 minutes ([2]; chewing gums comprising neotame having less flavor amounts than 1.5%): around 4.0 intensity units
average flavor intensity [2, 11]: ≥ 3.5 flavor intensity units
average flavor loss rate [2, 11]: less than 0.1 flavor intensity units per minute
average flavor intensity [2, 12]: ≥ 4 flavor intensity units
average flavor loss rate [2, 12]: less than 0.1 flavor intensity units per minute
sweetness potency (× sweeter than sucrose) [3]: about 8000 ×

O=C1NS(=O)(=O)c2ccccc21 [saccharin]
average sweetness loss rate at 6-10 minutes ([1]; chewing gum): 0.52 intensity units/min
average sweetness intensity at 6-10 minutes ([1]; chewing gum): 3.1 intensity units
average sweetness loss rate at 10-20 minutes ([1]; chewing gum): 0.15 intensity units/min
average sweetness intensity at 10-20 minutes ([1]; chewing gum): 1.2 intensity units
half-life of sweetness intensity [1, 4]: 4.5 min

OC[C@H]1O[C@H](O[C@]2(CCl)O[C@H](CCl)[C@@H](O)[C@@H]2O)[C@H](O)[C@@H](O)[C@H]1Cl [sucralose]
average sweetness loss rate at 6-10 minutes ([1]; chewing gum): 0.52 intensity units/min
average sweetness intensity at 6-10 minutes ([1]; chewing gum): 3.3 intensity units
average sweetness loss rate at 10-20 minutes ([1]; chewing gum): 0.16 intensity units/min
average sweetness intensity at 10-20 minutes ([1]; chewing gum): 1.3 intensity units
half-life of sweetness intensity [1, 4]: 4.5 min

OC[C@H]1O[C@@](CO)(O[C@H]2O[C@H](CO)[C@@H](O)[C@H](O)[C@H]2O)[C@@H](O)[C@@H]1O [sucrose]
average sweetness loss rate at 6-10 minutes ([1]; chewing gum): 0.45 intensity units/min
average sweetness intensity at 6-10 minutes ([1]; chewing gum): 2.1 intensity units
average sweetness loss rate at 10-20 minutes ([1]; chewing gum): 0.11 intensity units/min
average sweetness intensity at 10-20 minutes ([1]; chewing gum): 0.6 intensity units
half-life of sweetness intensity [1, 4]: 3.5 min
